Values of other authors as cited in patent US9981058B2, “Balloon surface coating” (CARDIONOVUM Sp.z.o.o., priority 2011, dated 2018).
Like-named read-outs stand apart in the source and are kept apart here.

CC(=O)O[C@H]1C(=O)[C@@]2(C)[C@H]([C@H](OC(=O)c3ccccc3)[C@]3(O)C[C@H](OC(=O)[C@H](O)[C@@H](NC(=O)c4ccccc4)c4ccccc4)C(C)=C1C3(C)C)[C@]1(OC(C)=O)CO[C@@H]1C[C@@H]2O (relative stereo) [Paclitaxel, [2aR-[2a,4,4a,6,9(R*,S*),11, 12,12a,12b]]-(benzoylamino)-hydroxybenzene propionic acid 6,12b-bis-(acetyloxy)-12-(benzoyloxy)-2a-3,4,4a,5,6,9, 10, 11, 12, 12a,12b-dodecahydro-4, 11-dihydroxy-4a,8,13,13-tetramethyl-5-oxo-7,11-methano-1H-cyclodeca[3,4]benz[1,2-b]oxet-9-yl ester)]
Solubility (in dimethyl sulfoxide (DMSO), methanol and anhydrous ethanol): highly soluble
Solubility (in water): comparatively poorly soluble
